What was measured:
Assay type in all cases: in vivo
[1] = test system: Amaranthus retroflexus (AMARE); experiment: Herbicidal post-emergence action, 1280 g/ha, AMARE; conditions: visual grading vs untreated controls
Procedure, shortened: (§1)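 Pot-grown weeds in sandy loam sprayed post-emergence at the single-leaf stage, 2–3 weeks after sowing, with WP or EC formulations plus 0.5% additive in 600 L water/ha at 1280 g/ha. After ca. 3 weeks in the greenhouse, damage scored visually as % effect versus untreated controls (100% = plants dead).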

Stellaria media (STEME) [2] = experiment: Herbicidal pre-emergence action, 320 g/ha, STEME; conditions: visual grading after ca. 3 weeks
Procedure, shortened: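 Weed seeds sown in sandy loam pots; WP or EC formulations applied pre-emergence to the covering soil surface at 320 g/ha with 0.5% additive in 600 L water/ha. Greenhouse growth; visual damage scored after ca. 3 weeks versus untreated controls (100% = plants died, 0% = as control).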

Lolium rigidum (LOLRI) [3] = experiment: Herbicidal post-emergence action, 320 g/ha, LOLRI; conditions: visual grading after ca. 3 weeks
Description: (§2) Seeds of mono- and dicotyledonous weed plants were sown in plastic pots (double sowings with one species of mono- and one species of dicotyledonous weed plants per pot), in sandy loam, covered with soil and grown under controlled growth conditions. 2 to 3 weeks after sowing, the test plants were sprayed in the single-leaf stage. The compounds according to the invention, formulated in the form of wettable powders (WP) or as emulsifiable concentrates (EC), were sprayed onto the green plant parts as an aqueous suspension or as an emulsion, with the addition of 0.5% of an additive, at an application rate of 600 litres of water per hectare (converted). The test plants were placed in the greenhouse for ca. 3 weeks under optimum growth conditions, and then the effect of the preparations was assessed visually in comparison with untreated controls (herbicidal effect in percent (%): 100% effect=plants have died, 0% effect=as control plants).
Tables D1 to D8 below, show the effects of selected compounds of the general formula (I) according to Table 1 on various harmful plants using an application rate corresponding to 320 g/ha obtained by the experimental procedure mentioned above.

Kochia scoparia (KCHSC) [4] = experiment: Herbicidal post-emergence action, 320 g/ha, KCHSC; conditions: visual grading after ca. 3 weeks
Procedure, shortened: (§3)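 Weeds were sown in sandy loam pots and sprayed post-emergence at the single-leaf stage, 2 to 3 weeks after sowing, with WP or EC formulations in water plus 0.5% additive at 600 L/ha. Visual % injury versus untreated controls was scored after ca. 3 weeks in the greenhouse.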

[5] = test system: Amaranthus retroflexus (AMARE); experiment: Herbicidal pre-emergence action, 320 g/ha, AMARE; conditions: visual grading after ca. 3 weeks
Description: (§4) Seeds of mono- and dicotyledonous weed plants were sown in plastic pots (double sowings with one species of mono- and one species of dicotyledonous weed plants per pot), in sandy loam, and covered with soil. The compounds according to the invention, formulated in the form of wettable powders (WP) or as emulsifiable concentrates (EC), were applied to the surface of the covering soil as an aqueous suspension or as an emulsion, with the addition of 0.5% of an additive, at an application rate of 600 litres of water per hectare (converted). Following treatment, the pots were placed in a greenhouse and kept under optimum growth conditions for the test plants. The visual grading of the damage to the test plants was carried out after ca. 3 weeks in comparison to untreated controls (herbicidal effect in percent (%): 100% effect=plants have died, 0% effect=as control plants).
(§5) Tables C1 to C6 below, show the effects of selected compounds of the general formula (I) according to Table 1 on various harmful plants using an application rate corresponding to 320 g/ha obtained by the experimental procedure mentioned above.

[6] = test system: Abutilon theophrasti (ABUTH); experiment: Herbicidal pre-emergence action, 1280 g/ha (Table A1); conditions: visual grading after ca. 3 weeks vs untreated controls
Procedure, shortened: (§6)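 Weed seeds sown in sandy loam pots and covered with soil; compounds formulated as WP or EC applied to the soil surface in water with 0.5% additive at 600 L water/ha. Pots kept in a greenhouse under optimum growth conditions; damage visually graded after ca. 3 weeks versus untreated controls (0% = as control, 100% = plants dead).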

[7] = test system: Matricaria inodora (MATIN); experiment: Herbicidal post-emergence action, 1280 g/ha (Table B6); conditions: visual assessment after ca. 3 weeks vs untreated controls
Procedure, shortened: (§7)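 Read-out is visual herbicidal effect in percent against untreated controls (100% = dead plants, 0% = like controls), scored about 3 weeks after treatment. Plants at the single-leaf stage were sprayed on green parts with aqueous WP or EC preparations containing 0.5% additive, 600 L water/ha.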

Stellaria media (STEME) [8] = experiment: Herbicidal pre-emergence action, 1280 g/ha (Table A9); conditions: visual grading after ca. 3 weeks vs untreated controls
Procedure, shortened: as §6

Poa annua (POAAN) [9] = experiment: Herbicidal pre-emergence action, 320 g/ha, POAAN; conditions: visual grading after ca. 3 weeks
Description: as §4, §5

Kochia scoparia (KCHSC) [10] = experiment: Herbicidal pre-emergence action, 1280 g/ha (Table A4); conditions: visual grading after ca. 3 weeks vs untreated controls
Procedure, shortened: as §6

Stellaria media (STEME) [11] = experiment: Herbicidal post-emergence action, 320 g/ha, STEME; conditions: visual grading after ca. 3 weeks
Procedure, shortened: as §3

Lolium rigidum (LOLRI) [12] = experiment: Herbicidal post-emergence action, 1280 g/ha (Table B5); conditions: visual assessment after ca. 3 weeks vs untreated controls
Procedure, shortened: as §7

Poa annua (POAAN) [13] = experiment: Herbicidal pre-emergence action, 1280 g/ha (Table A7); conditions: visual grading after ca. 3 weeks vs untreated controls
Procedure, shortened: as §6

[14] = test system: Matricaria inodora (MATIN); experiment: Herbicidal pre-emergence action, 1280 g/ha (Table A6); conditions: visual grading after ca. 3 weeks vs untreated controls
Procedure, shortened: as §6

Kochia scoparia (KCHSC) [15] = experiment: Herbicidal post-emergence action, 1280 g/ha (Table B4); conditions: visual assessment after ca. 3 weeks vs untreated controls
Procedure, shortened: as §7

[16] = test system: Abutilon theophrasti (ABUTH); experiment: Herbicidal post-emergence action, 1280 g/ha (Table B1); conditions: visual assessment after ca. 3 weeks vs untreated controls
Procedure, shortened: as §7

Lolium rigidum (LOLRI) [17] = experiment: Herbicidal pre-emergence action, 1280 g/ha (Table A5); conditions: visual grading after ca. 3 weeks vs untreated controls
Procedure, shortened: as §6

Setaria viridis (SETVI) [18] = experiment: Herbicidal pre-emergence action, 1280 g/ha (Table A8); conditions: visual grading after ca. 3 weeks vs untreated controls
Procedure, shortened: as §6

[19] = test system: Amaranthus retroflexus (AMARE); experiment: Herbicidal pre-emergence action, 1280 g/ha (Table A11); conditions: visual grading after ca. 3 weeks vs untreated controls
Procedure, shortened: as §6

Veronica persica (VERPE) [20] = experiment: Herbicidal post-emergence action, 1280 g/ha, VERPE; conditions: visual grading vs untreated controls
Procedure, shortened: as §1

Stellaria media (STEME) [21] = experiment: Herbicidal post-emergence action, 1280 g/ha (Table B9); conditions: visual assessment after ca. 3 weeks vs untreated controls
Procedure, shortened: as §7

[22] = test system: Abutilon theophrasti (ABUTH); experiment: Herbicidal post-emergence action, 320 g/ha, ABUTH; conditions: visual grading after ca. 3 weeks
Procedure, shortened: as §3

Veronica persica (VERPE) [23] = experiment: Herbicidal pre-emergence action, 1280 g/ha (Table A10); conditions: visual grading after ca. 3 weeks vs untreated controls
Description: as §4, with “plants). Tables A1 to A11 below, show the effects of selected compounds of the general formula (I) according to Table 1 on various harmful plants and an application rate corresponding to 1280 g/ha obtained by the experimental procedure mentioned above.” for “plants).”

Lolium rigidum (LOLRI) [24] = experiment: Herbicidal pre-emergence action, 320 g/ha (Table C2); conditions: visual grading after ca. 3 weeks vs untreated controls
Procedure, shortened: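 Applied pre-emergence to the surface of soil covering weed seeds sown in sandy loam, as WP or EC formulations in water with 0.5% additive at 600 L/ha. Greenhouse-grown; damage graded visually at ca. 3 weeks as percent of untreated controls (100% = plants died).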

[25] = test system: Amaranthus retroflexus (AMARE); experiment: Herbicidal post-emergence action, 320 g/ha, AMARE; conditions: visual grading after ca. 3 weeks
Procedure, shortened: as §3

Veronica persica (VERPE) [26] = experiment: Herbicidal post-emergence action, 320 g/ha, VERPE; conditions: visual grading after ca. 3 weeks
Procedure, shortened: as §3

Kochia scoparia (KCHSC) [27] = experiment: Herbicidal pre-emergence action, 320 g/ha (Table C1); conditions: visual grading after ca. 3 weeks vs untreated controls
Description: as §4, with “plants). Tables C1 to C6 below, show the effects of selected compounds of the general formula (I) according to Table 1 on various harmful plants using an application rate corresponding to 320 g/ha obtained by the experimental procedure mentioned above.” for “plants).”

Setaria viridis (SETVI) [28] = experiment: Herbicidal post-emergence action, 1280 g/ha (Table B8); conditions: visual assessment after ca. 3 weeks vs untreated controls
Procedure, shortened: as §7

[29] = test system: Matricaria inodora (MATIN); experiment: Herbicidal pre-emergence action, 320 g/ha (Table C3); conditions: visual grading after ca. 3 weeks vs untreated controls
Description: as §4, with “plants). Tables C1 to C6 below, show the effects of selected compounds of the general formula (I) according to Table 1 on various harmful plants using an application rate corresponding to 320 g/ha obtained by the experimental procedure mentioned above.” for “plants).”

[30] = test system: Echinochloa crus-galli (ECHCG); experiment: Herbicidal post-emergence action, 1280 g/ha (Table B3); conditions: visual assessment after ca. 3 weeks vs untreated controls
Description: as §2, with “plants). Tables B1 to B11 below, show the effects of selected compounds of the general formula (I) according to Table 1 on various harmful plants using an application rate corresponding to 1280 g/ha obtained by the experimental procedure mentioned above.” for “plants).”

CCOC(=O)Oc1c(C)nn(C)c(=O)c1Oc1ccccc1C1CC1 [Example I-012]
herbicidal effect AMARE [1]: 90%
herbicidal effect STEME (Stellaria media (STEME) [2]): 90%
herbicidal effect LOLRI (Lolium rigidum (LOLRI) [3]): 100%
herbicidal effect KCHSC (Kochia scoparia (KCHSC) [4]): 100%
herbicidal effect AMARE [5]: 100%
herbicidal effect ABUTH [6]: 100%
herbicidal effect MATIN [7]: 100%
herbicidal effect STEME (Stellaria media (STEME) [8]): 100%
herbicidal effect POAAN (Poa annua (POAAN) [9]): 90%
herbicidal effect KCHSC (Kochia scoparia (KCHSC) [10]): 100%
herbicidal effect STEME (Stellaria media (STEME) [11]): 100%
herbicidal effect LOLRI (Lolium rigidum (LOLRI) [12]): 100%
herbicidal effect POAAN (Poa annua (POAAN) [13]): 90%
herbicidal effect MATIN [14]: 90%
herbicidal effect KCHSC (Kochia scoparia (KCHSC) [15]): 100%
herbicidal effect ABUTH [16]: 100%
herbicidal effect LOLRI (Lolium rigidum (LOLRI) [17]): 100%
herbicidal effect SETVI (Setaria viridis (SETVI) [18]): 100%
herbicidal effect AMARE [19]: 100%
herbicidal effect VERPE (Veronica persica (VERPE) [20]): 90%
herbicidal effect STEME (Stellaria media (STEME) [21]): 100%
herbicidal effect ABUTH [22]: 100%

CCOC(=O)Oc1c(C)nn(C)c(=O)c1Oc1cc(Cl)ccc1Cl [Example I-086]
herbicidal effect AMARE [1]: 100%
herbicidal effect LOLRI (Lolium rigidum (LOLRI) [3]): 90%
herbicidal effect MATIN [7]: 90%
herbicidal effect STEME (Stellaria media (STEME) [8]): 100%
herbicidal effect STEME (Stellaria media (STEME) [11]): 90%
herbicidal effect LOLRI (Lolium rigidum (LOLRI) [12]): 100%
herbicidal effect VERPE (Veronica persica (VERPE) [23]): 90%
herbicidal effect MATIN [14]: 100%
herbicidal effect ABUTH [16]: 90%
herbicidal effect LOLRI (Lolium rigidum (LOLRI) [24]): 90%
herbicidal effect LOLRI (Lolium rigidum (LOLRI) [17]): 100%
herbicidal effect AMARE [25]: 90%
herbicidal effect AMARE [19]: 90%
herbicidal effect STEME (Stellaria media (STEME) [21]): 100%

Cc1nn(C)c(=O)c(Oc2cc(F)c(F)cc2C2CC2)c1OC(=O)C(C)C [Example I-102]
herbicidal effect AMARE [1]: 100%
herbicidal effect STEME (Stellaria media (STEME) [2]): 90%
herbicidal effect MATIN [7]: 100%
herbicidal effect STEME (Stellaria media (STEME) [8]): 100%
herbicidal effect VERPE (Veronica persica (VERPE) [26]): 90%
herbicidal effect KCHSC (Kochia scoparia (KCHSC) [10]): 90%
herbicidal effect STEME (Stellaria media (STEME) [11]): 90%
herbicidal effect LOLRI (Lolium rigidum (LOLRI) [12]): 90%
herbicidal effect MATIN [14]: 100%
herbicidal effect KCHSC (Kochia scoparia (KCHSC) [15]): 100%
herbicidal effect ABUTH [16]: 100%
herbicidal effect LOLRI (Lolium rigidum (LOLRI) [17]): 90%
herbicidal effect AMARE [25]: 90%
herbicidal effect AMARE [19]: 100%
herbicidal effect VERPE (Veronica persica (VERPE) [20]): 90%
herbicidal effect KCHSC (Kochia scoparia (KCHSC) [27]): 90%
herbicidal effect STEME (Stellaria media (STEME) [21]): 100%

CC(=O)Oc1c(C)nn(C)c(=O)c1Oc1ccccc1C(F)(F)F [Example I-030]
herbicidal effect AMARE [1]: 90%
herbicidal effect STEME (Stellaria media (STEME) [2]): 100%
herbicidal effect LOLRI (Lolium rigidum (LOLRI) [3]): 90%
herbicidal effect SETVI (Setaria viridis (SETVI) [28]): 90%
herbicidal effect AMARE [5]: 90%
herbicidal effect MATIN [7]: 90%
herbicidal effect STEME (Stellaria media (STEME) [8]): 100%
herbicidal effect KCHSC (Kochia scoparia (KCHSC) [10]): 90%
herbicidal effect STEME (Stellaria media (STEME) [11]): 90%
herbicidal effect LOLRI (Lolium rigidum (LOLRI) [12]): 90%
herbicidal effect VERPE (Veronica persica (VERPE) [23]): 90%
herbicidal effect MATIN [14]: 100%
herbicidal effect MATIN [29]: 100%
herbicidal effect KCHSC (Kochia scoparia (KCHSC) [15]): 90%
herbicidal effect ABUTH [16]: 100%
herbicidal effect ECHCG [30]: 90%
herbicidal effect LOLRI (Lolium rigidum (LOLRI) [24]): 90%
herbicidal effect LOLRI (Lolium rigidum (LOLRI) [17]): 100%
herbicidal effect AMARE [25]: 90%
herbicidal effect AMARE [19]: 100%
herbicidal effect VERPE (Veronica persica (VERPE) [20]): 90%
herbicidal effect STEME (Stellaria media (STEME) [21]): 100%
herbicidal effect ABUTH [22]: 90%

Cc1nn(C)c(=O)c(Oc2ccc(Cl)cc2)c1O [Example I-002]
herbicidal effect KCHSC (Kochia scoparia (KCHSC) [10]): 90%
herbicidal effect KCHSC (Kochia scoparia (KCHSC) [27]): 90%
